Experimental data reported in US20090176791A1, “Diaryl Ureas for Treating Pulmonary Hypertension” (BAYER HEALTHCARE AG, priority 2005, published 2009).

Tested on: monocrotaline-treated rats with pulmonary hypertension
Settings: MCT-induced pulmonary arterial hypertension, 10 mg/kg by gavage once daily from day 14 to day 28 after MCT
Protocol: The effects of the compounds and drug combinations according to the invention are tested in vitro on isolated rat pulmonary arteries and in vivo in monocrotaline-treated rats with pulmonary hypertension.
Male Sprague Dawley rats (250-300 g) are treated with monocrotaline 60 mg/kg subcutaneously (=day 0). On day 14 after monocrotaline injection treatment the compound/combination to be tested is administered. On day 28 hemodynamic parameters, i.e. right ventricular pressure, systemic blood pressure, heart rate, arterial and venous oxygen saturation are measured and compared with untreated control animals.

CNC(=O)c1cc(Oc2ccc(NC(=O)Nc3ccc(Cl)c(C(F)(F)F)c3)cc2)ccn1.Cc1ccc(S(=O)(=O)O)cc1 [p-toluenesulfonic acid salt of 4{4-[3-(4-chloro-3-trifluoromethylphenyl)-ureido]-phenoxy}-pyridine-2-carboxylic acid methyl amide]
right ventricle/left ventricle+septum ratio (right ventricular hypertrophy) (day 28): 0.26±0.01 | right ventricular systolic pressure (measured on day 28, mean±SEM): 36.50±1.50 mmHg
